Source: article PMC5988308, “Rhodanine derivatives as potent anti-HIV and anti-HSV microbicides” (PLoS ONE, 2018)
Converted amounts (≈) assume the structure as drawn. “And” between values parts separate entries of the source, which are not always exact repeats. Equal values may be shown once. Read-outs that look alike come from different tables or passages of the source.

Assays:
[1] = tested on: HIV-1 NL4.3 (CXCR4-tropic strain); test: Antiviral activity on TZM-bl cells infected with HIV-1 NL4.3 (CPRG assay); format: cell-based; details: TZM-bl cells
Method: After 48 h of incubation, the medium was removed and viral infection was quantified using a β-galactosidase (CPRG) assay (Roche). Twenty thousand TZM-bl cells/well were seeded in 96-well plates in complete DMEM supplemented with 30 μg/mL DEAE-dextran (Sigma-Aldrich). […] Vehicle (0.1% dimethyl sulfoxide [DMSO])-treated cells served as a negative control. […] After 2 days, viral infection was quantified using a CPRG assay (Roche). […] To evaluate the cell toxicity of the compounds, the metabolic XTT [2,3-bis-(2-methoxy-4-nitro-5-sulfophenyl)-2H-tetrazolium-5-carboxanilide] test (Sigma-Aldrich) was performed according to the manufacturer’s instructions.

HSV-2 = HSV-2 plaque reduction assay on Vero cells; format: cell-based; details: for EC50 / EC90: Human alphaherpesvirus 2, Vero; for EC50: read-out: HSV-2 EC50; for EC90: read-out: HSV-2 EC90; for SI (CC50/EC50), HSV-2: Vero cells
Method: Clinical isolates of HSV-1 and HSV-2 were kindly provided by Prof. M. Pistello, University of Pisa, Italy. HSV-1 and HSV-2 strains were propagated and titrated by plaque assay on Vero cells. A HSV-2 strain with phenotypic resistance to acyclovir was generated by serial passage in the presence of increasing concentrations of acyclovir, as previously described.
The effect of the rhodanine derivatives on HSV infection was evaluated by plaque reduction assay. Vero cells were pre-plated 24 h in advance in 24-well plates at a density of […]. Increasing concentrations of compounds were mixed with HSV-2 (MOI 0.001 pfu/cell) or HSV-2 acyclovir resistant (MOI 0.001) or HSV-1 (MOI 0.0005) or and incubated for 1 hour at 37°C. The mixtures were subsequently added to the cells, which were then incubated at 37°C for 2 h. The virus inoculum was then removed and the cells washed and overlaid with a medium containing 1.2% methylcellulose (Sigma). After further incubation at 37°C for 24 h (HSV-2 and HSV-2 R Acy) or 48 h (HSV-1), cells were fixed and stained with 0.1% crystal violet in 20% ethanol and viral plaques counted. The effective concentration producing 50% reduction (EC50) and 90% reduction (EC90) in plaque formation was determined using Prism software by comparing drug-treated with wells treated with medium and solvent. The selectivity index (SI) was calculated by dividing the CC50 by the EC50 value.
All results are presented as the mean values from three independent experiments. The EC50 values for inhibition curves were calculated by regression analysis using the software GraphPad Prism (GraphPad Software, San Diego, California, U.S.A.) by fitting a variable slope-sigmoidal dose–response curve. Acyclovir was purchased from Sigma Aldrich (Milan, Italy).

[2] = Aqueous (thermodynamic) solubility; format: physicochemical; details: thermodynamic from solid, water, 20°C, read-out: Water Solub.
Method: Each solid compound (1 mg) was added to 1 mL of water. Each sample was mixed at 20°C, in a shaker water bath for 24 h. The resulting suspension was filtered through a 0.45 μm nylon filter (Acrodisc). The concentration of solubilized compounds weres determined by UV/LC-MS (performed in triplicate) by comparison with the appropriate calibration curve that was obtained from samples of the compound dissolved in methanol at different concentrations.

[3] = Metabolic stability in human liver microsomes; format: in vitro ADME; details: HLM, 37°C, 1 h; percentage of compound not metabolized
Method: The incubation mixture (total volume of 500 μL) was constituted by the following components: HLM (0.2 mg/mL), a NADPH regenerating system (NADPH 0.2 mM, […] 1 mM, D-glucose-6-phosphate 4 mM, 4 unit/mL glucose-6-phosphate dehydrogenase and MgCl2 48 mM), 50 μM of each compound in DMSO and phosphate buffer (pH 7.4, 25 mM, up to a final volume of 500 μL). The mixture was incubated at 37°C for 1 h. The reaction was cooled down and quenched with acetonitrile (1.0 mL). After centrifugation (4000 rpm, 10 min), the supernatant was taken, dried under nitrogen flow, suspended in 100 μL of methanol and analyzed by UV/LC-MS to determine the percentage of compound that was not metabolized.

[4] = molecular target: human serum albumin (HSA) (Homo sapiens, UniProt P02768); test: Albumin binding fluorimetric assay, HSA; details: fluorescence quenching, 10 μM HSA
Method: The binding of each compounds to HSA (human serum albumin) and BSA (bovine serum albumin) were monitored by fluorescence spectroscopy in order to determine the dissociation constant (Kd). A quantitative analysis of the potential interaction was performed by fluorimetric analysis using 96 multiwell plates: in each well a fixed concentration of HSA or BSA (10μM in phosphate buffer 1 mM), was added with different amounts of tested compound (0.1μM to 500μM by stock solutions in DMSO). […] The obtained fluorescence quenching percentages were plotted against drug concentrations and the relative Kd values were obtained using GraphPad software (version 6.0).

[5] = Cytotoxicity on TZM-bl cells (XTT test); format: cell-based; details: human, read-out: Citotoxicity (TZM-bl cells) CC50
Method: The human TZM-bl indicator cell line (obtained from the NIH AIDS reagents program, cat. Nr 8129 (www.aidsreagent.org) and maintained at 37°C and 5% CO2 in Dulbecco’s modified Eagle’s medium (DMEM) medium containing 10% fetal bovine serum, 50 μg/mL penicillin, and 50 μg/mL streptomycin. The HIV-1 laboratory strains NL(AD8) (NIH AIDS reagents program, cat.nr 11346), NL4.3 (NIH AIDS reagents program, cat. Nr. 114) were titrated as previously reported. Briefly, serial 5-fold dilutions of each virus were made in quadruplicate wells in 96-well culture plates, in a total volume of 100 μL of growth medium (DMEM), for a total of 8 dilution steps. Freshly trypsinized cells (20,000 cells in 100 μL of growth medium containing 75 μg/mL DEAE-dextran) were added to each well, and the plates were incubated at 37°C in a humidified 5% CO2-95% air environment. After 48 h of incubation, the medium was removed and viral infection was quantified using a β-galactosidase (CPRG) assay (Roche). Twenty thousand TZM-bl cells/well were seeded in 96-well plates in complete DMEM supplemented with 30 μg/mL DEAE-dextran (Sigma-Aldrich). Three hundred times the 50% tissue culture infective dose (TCID50)/mL of each strain was pretreated for 1 h at 37°C with six serial dilutions ([…] to 3.2 nM) of each compound and then added to the cells, as previously described. Vehicle (0.1% dimethyl sulfoxide [DMSO])-treated cells served as a negative control. […] After 2 days, viral infection was quantified using a CPRG assay (Roche). The inhibitory curves were fitted by nonlinear regression, allowing for the calculation of the 50% inhibitory concentration (IC50) using the Prism software. To evaluate the cell toxicity of the compounds, the metabolic XTT [2,3-bis-(2-methoxy-4-nitro-5-sulfophenyl)-2H-tetrazolium-5-carboxanilide] test (Sigma-Aldrich) was performed according to the manufacturer’s instructions.

[6] = Human immunodeficiency virus 1, NL43, TZM-bl, pre-incubation in complete medium containing fetal bovine serum (FBS), read-out: NL4-3 EC50 a
[7] = Human immunodeficiency virus 1, NL43, TZM-bl, pre-incubation with virus without serum, read-out: NL4-3 EC50

Chain of human serum albumin (HSA) (P02768 25-609): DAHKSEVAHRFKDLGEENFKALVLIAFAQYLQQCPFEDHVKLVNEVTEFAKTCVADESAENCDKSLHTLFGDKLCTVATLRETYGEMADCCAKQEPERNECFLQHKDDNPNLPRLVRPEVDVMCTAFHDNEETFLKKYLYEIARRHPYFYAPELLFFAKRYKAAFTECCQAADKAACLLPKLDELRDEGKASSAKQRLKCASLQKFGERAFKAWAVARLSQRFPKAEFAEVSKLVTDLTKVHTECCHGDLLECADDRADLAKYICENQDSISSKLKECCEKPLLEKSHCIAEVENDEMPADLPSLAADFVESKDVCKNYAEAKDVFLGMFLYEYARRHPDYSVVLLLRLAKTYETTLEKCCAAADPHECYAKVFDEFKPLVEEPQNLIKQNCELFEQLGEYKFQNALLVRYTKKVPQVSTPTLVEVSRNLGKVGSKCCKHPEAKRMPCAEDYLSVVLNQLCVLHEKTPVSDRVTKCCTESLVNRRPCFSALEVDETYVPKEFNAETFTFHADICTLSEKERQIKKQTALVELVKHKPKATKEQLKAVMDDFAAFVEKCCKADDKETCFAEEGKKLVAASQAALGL

SMILES | EC50 [1, 6] | EC50 [1, 7] | EC50 (HSV-2) | EC90 (HSV-2) | SI (CC50/EC50), HSV-2 (HSV-2) | solubility at 24 h [2] | Metabolic Stability [3] | Kd [4] | CC50 [5] | EC50 ([1]; Human immunodeficiency virus 1, TZM-bl, pre-incubation with FBS, read-out: EC50 against NL4.3 strain in presence of serum) | EC50 ([1]; pre-incubation with virus without serum, read-out: NL4-3 EC50)
Cc1ccc(CCN2C(=O)/C(=C/c3ccc(-c4ccc(C(=O)O)c(O)c4)o3)SC2=S)cc1 [Compound 9b, (Z)-2-hydroxy-4-(5-((3-(4-methylphenethyl)-4-oxo-2-thioxothiazolidin-5-ylidene)methyl)furan-2-yl)benzoic acid] | 457 ± 5 nM | 23 ± 4 nM | 4.89 ± 1.59 nM | 57.8 ± 22.6 nM | 2209 | 0.1 ± 0.08 µg/mL (≈ 0.215 µM) | >90% | 1570 ± 200 nM | > 20000 nM | – | –
O=C(O)c1ccc(-c2ccc(/C=C3\SC(=S)N(CCCc4ccccc4)C3=O)o2)cc1O [Compound 9c, (Z)-2-hydroxy-4-(5-((4-oxo-3-(3-phenylpropyl)-2-thioxothiazolidin-5-ylidene)methyl)furan-2-yl)benzoic acid] | 457 ± 11 nM | 15.3 ± 2 nM | 52 ± 21.2 nM | 422 ± 225 nM | 3936 | 0.3 ± 0.07 µg/mL (≈ 0.644 µM) | >90% | 1190 ± 100 nM | > 20000 nM | – | –
O=C(O)c1ccc(-c2ccc(/C=C3\SC(=S)N(Cc4ccc(Cl)c(F)c4)C3=O)o2)cc1O [Compound 9f, (Z)-4-(5-((3-(4-chloro-3-fluorobenzyl)-4-oxo-2-thioxothiazolidin-5-ylidene)methyl)furan-2-yl)-2-hydroxybenzoic acid] | 570 ± 9 nM | 17 ± 2 nM | 26.4 ± 11.1 nM | 153 ± 159 nM | 298 | 0.73 ± 0.14 µg/mL (≈ 1.49 µM) | >90% | 2230 ± 1200 nM | > 20000 nM | – | –
CCc1ccc(CCN2C(=O)/C(=C/c3ccc(-c4ccc(C(=O)O)c(O)c4)o3)SC2=S)cc1 [Compound 9d, (Z)-4-(5-((3-(4-ethylphenethyl)-4-oxo-2-thioxothiazolidin-5-ylidene)methyl)furan-2-yl)-2-hydroxybenzoic acid] | 228 ± 10 nM | 23.4 ± 3 nM | 28.7 ± 7.11 nM | 140 ± 61.2 nM | 600 and 604.3 | 0.25 ± 0.09 µg/mL (≈ 0.521 µM) | >90% | 1090 ± 900 nM | 12300 nM | – | –
O=C(O)c1ccc(-c2ccc(/C=C3\SC(=S)N(CCc4ccc(F)cc4)C3=O)o2)cc1O [Compound 9a, (Z)-4-(5-((3-(4-fluorophenethyl)-4-oxo-2-thioxothiazolidin-5-ylidene)methyl)furan-2-yl)-2-hydroxybenzoic acid] | 204 ± 12 nM | 5.4 nM | 345 ± 168 nM | 426 ± 56.3 nM | >869 | 0.54 ± 0.08 µg/mL (≈ 1.15 µM) | >90% | 1510 ± 200 nM | 2200 nM | – | –
O=C(O)c1ccc(-c2ccc(/C=C3\SC(=S)N(Cc4ccc(Cl)cc4)C3=O)o2)cc1O [Compound 2] | 190 ± 9 nM | 4 nM | 11.9 ± 5.73 nM | 481 ± 299 nM | 9400 and 9403 | 0.52 ± 0.13 µg/mL (≈ 1.1 µM) | >90% | 960 ± 100 nM | > 20000 nM | – | –
O=C(O)c1ccc(-c2ccc(/C=C3\SC(=S)N(Cc4ccc(F)cc4)C3=O)o2)cc1O [Compound 1] | 2951 ± 15 nM | ~50 nM | 168 ± 143 nM | 2110 ± 918 nM | – | 0.88 ± 0.1 µg/mL (≈ 1.93 µM) | >90% | 630 ± 100 nM | > 20000 nM | 3000 nM | 49.5 ± 2 nM
O=C(O)c1ccc(-c2ccc(/C=C3\SC(=S)N(c4ccc(F)c(Cl)c4)C3=O)o2)cc1O [Compound 9e, (Z)-4-(5-((3-(3-chloro-4-fluorophenyl)-4-oxo-2-thioxothiazolidin-5-ylidene)methyl)furan-2-yl)-2-hydroxybenzoic acid] | 420 ± 7 nM | 30 ± 1 nM | 50.3 ± 10.5 nM | 206 ± 85.5 nM | >1988 | 0.72 ± 0.12 µg/mL (≈ 1.51 µM) | >90% | 2190 ± 1000 nM | > 20000 nM | – | –
